The results in this text go back to patent US7488740B2, “Substituted quinolin-4-ylamine analogues” (Neurogen Corporation, priority 2003, dated 2009).

Each structure is given as a SMILES string.

A word on the IC50: it is the concentration needed to halve the response being measured.

The target of this assay is T1, human capsaicin receptor (Homo sapiens, UniProt Q8NER1).
T1 construct: A cDNA encoding full length human capsaicin receptor recited in U.S. Pat. No. 6,482,611 was subcloned in the plasmid pBK-CMV; expressed in transfected cells
T1 sequence (Q8NER1 whole entry): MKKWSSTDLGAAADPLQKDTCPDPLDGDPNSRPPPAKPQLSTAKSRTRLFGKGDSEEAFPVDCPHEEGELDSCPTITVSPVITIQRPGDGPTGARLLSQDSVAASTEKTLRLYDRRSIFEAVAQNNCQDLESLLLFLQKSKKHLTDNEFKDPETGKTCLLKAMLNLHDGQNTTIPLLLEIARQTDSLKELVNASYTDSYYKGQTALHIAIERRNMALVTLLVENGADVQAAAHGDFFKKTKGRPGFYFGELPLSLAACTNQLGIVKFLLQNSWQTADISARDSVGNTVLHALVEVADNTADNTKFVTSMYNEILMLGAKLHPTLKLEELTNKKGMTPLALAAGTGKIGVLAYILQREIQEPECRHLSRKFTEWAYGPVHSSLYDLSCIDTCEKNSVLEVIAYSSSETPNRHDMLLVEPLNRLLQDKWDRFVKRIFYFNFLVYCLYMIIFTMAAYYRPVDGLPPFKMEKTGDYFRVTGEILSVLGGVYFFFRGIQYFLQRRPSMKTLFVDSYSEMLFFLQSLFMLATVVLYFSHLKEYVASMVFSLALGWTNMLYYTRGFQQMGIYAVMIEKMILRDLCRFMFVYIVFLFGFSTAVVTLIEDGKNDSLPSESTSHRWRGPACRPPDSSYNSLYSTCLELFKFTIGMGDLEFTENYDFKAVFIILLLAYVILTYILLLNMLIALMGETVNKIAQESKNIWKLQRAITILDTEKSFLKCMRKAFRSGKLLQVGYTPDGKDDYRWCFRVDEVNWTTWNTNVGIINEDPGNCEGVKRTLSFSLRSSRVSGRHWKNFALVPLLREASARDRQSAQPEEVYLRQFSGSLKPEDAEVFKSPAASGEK
The experiment in a line: Calcium mobilization assay (Example 6). Type of assay: cell-based. The settings on record: concentration required to provide a 50% decrease in the fluorescence response of cells exposed to one IC50 of capsaicin. The protocol: Human embryonic kidney (HEK293) cells were transfected with the pBK-CMV expression construct encoding the full length human capsaicin receptor using standard methods. The transfected cells were selected for two weeks in media containing G418 (400 μg/ml) to obtain a pool of stably transfected cells. Independent clones were isolated from this pool by limiting dilution to obtain clonal stable cell lines for use in subsequent experiments.
Cells transfected with expression plasmids (as described in Example 4) and thereby expressing human capsaicin receptor are seeded and grown to 70-90% confluency in FALCON black-walled, clear-bottomed 96-well plates (#3904, BECTON-DICKINSON, Franklin Lakes, N.J.). The culture medium is emptied from the 96 well plates and FLUO-3 AM calcium sensitive dye (Molecular Probes, Eugene, Oreg.) is added to each well (dye solution: 1 mg FLUO-3 AM, 440 μL DMSO and 440 μl 20% pluronic acid in DMSO, diluted 1:250 in Krebs-Ringer HEPES (KRH) buffer (25 mM HEPES, 5 mM KCl, 0.96 mM NaH2PO4, 1 mM MgSO4, 2 mM CaCl2, 5 mM glucose, 1 mM probenecid, pH 7.4), 50 μl diluted solution per well). Plates are covered with aluminum foil and incubated at 37° C. for 1-2 hours in an environment containing 5% CO2. After the incubation, the dye is emptied from the plates, and the cells are washed once with KRH buffer, and, resuspended in KRH buffer.
Agonist (e.g., olvanil, capsaicin, or RTX)-induced calcium mobilization is monitored using either FLUOROSKAN ASCENT (Labsystems, Franklin, Mass.) or FLIPR (fluorometric imaging plate reader system, Molecular Devices, Sunnyvale, Calif.) instruments. Varying concentrations of the antagonists ruthenium red or capsazepine (RBI; Natick, Mass.) are added to cells concurrently with agonist (e.g., 25-50 nM capsaicin). For agonist-induced calcium responses, data obtained between 30 and 60 seconds after agonist application are used to generate the IC50 values. KALEIDAGRAPH software (Synergy Software, Reading, Pa.) is used to fit the data to the equation: y=a*(1/(1+(b/x)^c)) to determine the IC50 for the response. In this equation, y is the maximum fluorescence signal, x is the concentration of the agonist or antagonist, a is the Emax, b corresponds to the IC50 value and c is the Hill coefficient.
To measure the ability of a test compound to antagonize (inhibit) the response of cells expressing capsaicin receptors to capsaicin or other vanilloid agonist, the IC50 of capsaicin is first determined. An additional 20 μl of KRH buffer and 1 μl DMSO is added to each well of cells, prepared as described above. 100 μl capsaicin in KRH buffer is automatically transferred by the FLIPR instrument to each well. An 8-point concentration response curve, with final capsaicin concentrations of 1 nM to 3 μM, is used to determine capsaicin IC50.
Test compounds are dissolved in DMSO, diluted in 20 μl KRH buffer so that the final concentration of test compounds in the assay well is between 1 μM and 5 μM, and added to cells prepared as described above. The 96 well plates containing prepared cells and test compounds are incubated in the dark, at room temperature for 0.5 to 6 hours. It is important that the incubation not continue beyond 6 hours. Just prior to determining the fluorescence response, 100 μl capsaicin in KRH buffer at twice the IC50 concentration determined from the concentration response curve is automatically added by the FLIPR instrument to each well of the 96 well plate for a final sample volume of 200 μl and a final capsaicin concentration equal to the IC50. The final concentration of test compounds in the assay wells is between 1 μM and 5 μM. […] Antagonists of the capsaicin receptor decrease this response by at least about 20%, preferably by at least about 50%, and most preferably by at least 80% as compared to matched control. The concentration of antagonist required to provide a 50% decrease is the IC50 for the antagonist, and is preferably below 1 micromolar, 100 nanomolar, 10 nanomolar or 1 nanomolar. […]
Background: Calcium flux is commonly read through the fluorescence of an indicator in the cells.
For `Cc1cc(Nc2ccc(C(F)(F)F)cn2)c2ccc(-c3ncccc3C(F)(F)F)nc2n1` [Compound 39, 2-methyl-7-[3-(trifluoromethyl)pyridin-2-yl]-N-[5-(trifluoromethyl)pyridin-2-yl]-1,8-naphthyridin-4-amine], the concentration for half-maximal inhibition (IC50) is not above 1000 nM. With `CCOCc1cc(Nc2ccc(C(F)(F)F)cc2)c2ccc(-c3ncccc3C(F)(F)F)nc2n1` [Compound 40, 2-(ethoxymethyl)-N-[4-(trifluoromethyl)phenyl]-7-[3-(trifluoromethyl)pyridin-2-yl]-1,8-naphthyridin-4-amine], the concentration for half-maximal inhibition (IC50) is not above 1000 nM. Consider `CC(C)OCc1cc(Nc2ccc(C(F)(F)F)cc2)c2ccc(-c3ncccc3C(F)(F)F)nc2n1` [Compound 41, 2-(isopropoxymethyl)-N-[4-(trifluoromethyl)phenyl]-7-[3-(trifluoromethyl)pyridin-2-yl]-1,8-naphthyridin-4-amine], for which the half-inhibitory concentration (IC50) was not above 1000 nM. `CC(C)CCOCc1cc(Nc2ccc(C(F)(F)F)cc2)c2ccc(-c3ncccc3C(F)(F)F)nc2n1` [Compound 42, 2-[(isopentyloxy)methyl]-N-[4-(trifluoromethyl)phenyl]-7-[3-(trifluoromethyl)pyridin-2-yl]-1,8-naphthyridin-4-amine]: the IC50 is not above 1000 nM. On to `CCCOCc1cc(Nc2ccc(C(F)(F)F)cc2)c2ccc(-c3ncccc3C(F)(F)F)nc2n1` [Compound 43, 2-(propoxymethyl)-N-[4-(trifluoromethyl)phenyl]-7-[3-(trifluoromethyl)pyridin-2-yl]-1,8-naphthyridin-4-amine], for which the IC50 is not above 1000 nM. Regarding `CC(C)COCc1cc(Nc2ccc(C(F)(F)F)cn2)c2ccc(-c3ncccc3C(F)(F)F)nc2n1` [Compound 44, 2-(isobutoxymethyl)-7-[3-(trifluoromethyl)pyridin-2-yl]-N-[5-(trifluoromethyl)pyridin-2-yl]-1,8-naphthyridin-4-amine], the IC50 is not above 1000 nM. As for `CCOc1cc(Nc2ccc(C(F)(F)F)cn2)c2ccc(-c3ncccc3C(F)(F)F)nc2n1` [Compound 45, 2-ethoxy-7-[3-(trifluoromethyl)pyridin-2-yl]-N-[5-(trifluoromethyl)pyridin-2-yl]-1,8-naphthyridin-4-amine], the figure is not above 1000 nM; as for `CCOc1cc(Nc2ccc(S(=O)(=O)C(F)(F)F)cc2)c2ccc(-c3ncccc3C(F)(F)F)nc2n1` [Compound 46, 2-ethoxy-7-[3-(trifluoromethyl)pyridin-2-yl]-N-{4-[(trifluoromethyl)sulfonyl]phenyl}-1,8-naphthyridin-4-amine], not above 1000 nM.

Turning to `COc1cc(Nc2ccc(C(C)(C)C)cc2)c2ccc(-c3ncccc3C(F)(F)F)nc2n1` [Compound 47, N-(4-tert-butylphenyl)-2-methoxy-7-[3-(trifluoromethyl)pyridin-2-yl]-1,8-naphthyridin-4-amine], the IC50 was not above 1000 nM. Consider `Cc1cc(Nc2ccc(C(F)(F)F)cc2)c2ccc(-c3ncccc3C(F)(F)F)nc2n1` [Compound 48, 2-methyl-N-[4-(trifluoromethyl)phenyl]-7-[3-(trifluoromethyl)pyridin-2-yl]-1,8-naphthyridin-4-amine], for which the IC50 was not above 1000 nM. With `CC1CCCN1Cc1cc(Nc2ccc(C(F)(F)F)cc2)c2ccc(-c3ncccc3C(F)(F)F)nc2n1` (centres unmarked) [Compound 49, 2-[(2-methylpyrrolidin-1-yl)methyl]-N-[4-(trifluoromethyl)phenyl]-7-[3-(trifluoromethyl)pyridin-2-yl]-1,8-naphthyridin-4-amine], the 50% inhibitory concentration (IC50) is not above 1000 nM. Turning to `COCCN(CCOC)Cc1cc(Nc2ccc(C(F)(F)F)cc2)c2ccc(-c3ncccc3C(F)(F)F)nc2n1` [Compound 50, 2-{[bis(2-methoxyethyl)amino]methyl}-N-[4-(trifluoromethyl)phenyl]-7-[3-(trifluoromethyl)pyridin-2-yl]-1,8-naphthyridin-4-amine], the half-maximal inhibitory concentration (IC50) is not above 1000 nM.

As to `COCc1cc(Nc2ccc(C(F)(F)F)cc2)c2ccc(-c3ncccc3Cl)nc2n1` [Compound 51, 7-(3-chloropyridin-2-yl)-2-(methoxymethyl)-N-[4-(trifluoromethyl)phenyl]-1,8-naphthyridin-4-amine], the IC50 was not above 1000 nM. Take `CC(C)COCc1cc(Nc2ccc(C(F)(F)F)cc2)c2ccc(-c3ncccc3Cl)nc2n1` [Compound 52, 7-(3-chloropyridin-2-yl)-2-(isobutoxymethyl)-N-[4-(trifluoromethyl)phenyl]-1,8-naphthyridin-4-amine]: the IC50 is not above 1000 nM. As for `COCc1cc(Nc2ccc(C(C)(C)O)cc2)c2ccc(-c3ncccc3Cl)nc2n1` [Compound 53, 2-(4-{[7-(3-chloropyridin-2-yl)-2-(methoxymethyl)-1,8-naphthyridin-4-yl]amino}phenyl)propan-2-ol], the figure is not above 1000 nM; as for `CC(C)COCc1cc(Nc2ccc(F)cc2)c2ccc(-c3ncccc3C(F)(F)F)nc2n1` [Compound 54, N-(4-fluorophenyl)-2-(isobutoxymethyl)-7-[3-(trifluoromethyl)pyridin-2-yl]-1,8-naphthyridin-4-amine], not above 1000 nM; as for `FC(F)(F)c1ccc(Nc2cc(CN3CCC3)nc3nc(-c4ncccc4C(F)(F)F)ccc23)cc1` [Compound 55, 2-(azetidin-1-ylmethyl)-N-[4-(trifluoromethyl)phenyl]-7-[3-(trifluoromethyl)pyridin-2-yl]-1,8-naphthyridin-4-amine], not above 1000 nM. As for `CC(=O)c1ccc(Nc2cc(COCC(C)C)nc3nc(-c4ncccc4C(F)(F)F)ccc23)cc1` [Compound 56, 1-[4-({2-(isobutoxymethyl)-7-[3-(trifluoromethyl)pyridin-2-yl]-1,8-naphthyridin-4-yl}amino)phenyl]ethanone], the figure is not above 1000 nM.

`CC(C)COCc1cc(Nc2ccc(C(C)(C)O)cc2)c2ccc(-c3ncccc3C(F)(F)F)nc2n1` [Compound 57, 2-[4-({2-(isobutoxymethyl)-7-[3-(trifluoromethyl)pyridin-2-yl]-1,8-naphthyridin-4-yl}amino)phenyl]propan-2-ol]: the IC50 was not above 1000 nM. The result for `CC(C)NCc1cc(Nc2ccc(C(F)(F)F)cc2)c2ccc(-c3ncccc3C(F)(F)F)nc2n1` [Compound 58, 2-[(isopropylamino)methyl]-N-[4-(trifluoromethyl)phenyl]-7-[3-(trifluoromethyl)pyridin-2-yl]-1,8-naphthyridin-4-amine] reads not above 1000 nM. For `CC(C)CNCc1cc(Nc2ccc(C(F)(F)F)cc2)c2ccc(-c3ncccc3C(F)(F)F)nc2n1` [Compound 59, 2-[(isobutylamino)methyl]-N-[4-(trifluoromethyl)phenyl]-7-[3-(trifluoromethyl)pyridin-2-yl]-1,8-naphthyridin-4-amine], the IC50 was not above 1000 nM.

As to `CC(C)CN(C)Cc1cc(Nc2ccc(C(F)(F)F)cc2)c2ccc(-c3ncccc3C(F)(F)F)nc2n1` [Compound 60, 2-{[isobutyl(methyl)amino]methyl}-N-[4-(trifluoromethyl)phenyl]-7-[3-(trifluoromethyl)pyridin-2-yl]-1,8-naphthyridin-4-amine], the IC50 is not above 1000 nM. The result for `CC(C)COCc1cc(Nc2ccc(Br)cn2)c2ccc(-c3ncccc3C(F)(F)F)nc2n1` [Compound 61, N-(5-bromopyridin-2-yl)-2-(isobutoxymethyl)-7-[3-(trifluoromethyl)pyridin-2-yl]-1,8-naphthyridin-4-amine] reads not above 1000 nM.
